Measured values reported in patent US6881729B2, “Bile compound and method of controlling behavior of lampreys therewith” (Board of Trustees of Michigan State University, priority 2001, dated 2005).

Key:
[1] = tested on: antibody against 3kPZS (polyclonal antiserum L286); experiment: ELISA cross-reactivity of the antiserum; format: binding, rabbit
Experimental: Plates were coated with polyclonal goat anti-rabbit IgG (Sigma; product code R2004) by adding 120 μL of antibody diluted in 0.05 M potassium phosphate buffer, pH 7.4 to each well and incubating overnight at 4° C. The plates were blocked by addition of 100 μL of 3% BSA in 0.1 M potassium phosphate buffered saline and storage at 4° C. for at least 12 h.
Non-specific binding (NSB) and maximum binding (B0) were measured in separate wells. Water washings, extracts, or HPLC fractions were diluted 20 times in assay buffer and 100 μL added to wells in duplicate; 50 μL of the diluted enzyme label (1:2000) was added to all wells and 50 μL of primary antibody (1:500,000) was added to all but NSB wells. Plates were incubated for 2 h at room temperature in a humid chamber. Then, after rinsing three times with wash buffer, 200 μL Ellmans reagent (4.3 mg DTNB, and 4 mg acetyl thiocholine in 20 mL 0.02 M potassium phosphate buffer) was added to each well. The plates were sealed and incubated overnight at room temperature in a humid chamber.
To test the cross-reactivity of the antibody to structurally related compounds, serial dilutions of ACA, PZ, PZS, CA, 3kACA, and 3kPZ were assayed alongside the 3kPZS standard.

[2] = diethyl ether extraction from buffers of different pH; format: physicochemical; settings: pH 4
Experimental: A trial was carried out in which a mixture of synthetic 3kPZS and 3kACA was dissolved in buffers of different pH and then extracted with diethyl ether. […] Based on this observation, an extract from 1 L of water that had been conditioned by a spermiating male was redissolved in 100 μL methanol and 900 μL of 0.05 M sodium acetate buffer, pH 4.0. This was extracted four times with 3 mL diethyl ether. The residue was then separated by HPLC as described above and the fractions assayed with the ELISA. Some of the extract which had not been treated with diethyl ether was treated in the same way. After these separations had been performed, standard synthetic 3kACA, 3kPZS and 3kPZ (200 μg each) were run on the column under identical conditions.

ovulated females = experiment: two-choice maze behavioral test (preference and searching); format: in vivo, sea lamprey, Petromyzon marinus
Source text: Behavioral tests confirmed that the odor of spermiating males influences the distribution and locomotor activities of ripe females in a two-choice maize as follows. Animals were classified as spermiating males and ovulated females if milt and eggs, respectively, could be expressed by manual pressure, or otherwise as non-spermiating males and pre-ovulatory females, and used as either test subjects or odor donors in a flow through (0.07 m/s) maze (L 4.6 m×W 1.2 m) with plywood bottom, sides, and a partition in the middle which extended 2.4 m from the upstream end, and with plastic meshes blocking fish movement at both the upstream and downstream ends. Odor donors were held above the upstream mesh. Between 0700 and 1700 h, a single test subject was acclimated for 10 min in the maze, and its behavior video recorded for 20 min. Then, 5 lampreys (all of one sex and maturity) were introduced into the mesh chamber on a randomly chosen side, and behavior of test subjects recorded for another 20 min. When washings were used, a spermiating male was held in 10 L of water for four hours and the water introduced into the odor chamber at 75 mL/min. Naïve observers scored videotapes for the total time spent in each side before (Be and Bc) and after (Ae and Ac) odorant introduction. The scores were used to calculate an index of preference: I=(Ae/(Ae+Be))−(Ac/(Ac+Bc)). A similar index was computed for searching behaviors which involved pacing back and forth across the upstream barrier, increased swimming speed, and rapid beating of the tail.
When tested in a two-choice maze, ovulated females (but not males or pre-ovulatory females) spent more time in the compartment scented with washings from spermiating males (Table 1). There was no preference of ovulated females for washings of pre-spermiating males or females.
From this we estimated that in the two-choice maze experiments with live males, the pheromone reached a concentration between 0.1 and 0.2 ηM. Therefore, the converted PS was tested in the two-choice maze at a final concentration of 0.17 ηM.

[3] = tested on: olfactory organs of adult females; experiment: electro-olfactography (EOG); format: in vivo, sea lamprey
Source text: The response magnitude is expressed as the percentage of responses to 10^−5 M L-arginine, the standard odorant. Vertical bars, one standard deviation.

[4] = long-term storage of natural compound in ethanol; format: physicochemical; settings: 1 mg/mL in ethanol at −20° C. for over one year
Source text: In Example 1, only a small supply of synthetic 3kPZS had been produced by enzymatic oxidation of the 3α-hydroxyl group of PZS. This restricted the number of comparisons that could be made between the natural and synthetic 3kPZS. This example completes these studies. This example confirms that both synthetic and natural 3kPZS have the same chromatographic properties and behave in the same way when treated with 3α-HSD and sulfatase. […] The reason for this has not been fully established. However, the natural compound that was used in this example had been stored at 1 mg/mL in ethanol at −20° C. for over one year, whereas the synthetic compound had been made up freshly. The possibility is that the sulfate group is unstable in long-term storage.

[5] = weight for weight basis, compared with 3kPZS
[6] = ovulated females, final concentration of 0.17 ηM
[7] = ovulated females, flow-through maze, washings introduced at 75 mL/min, PP at final concentration of 0.17 ηM
[8] = ovulated females, searching behavior

Compound: C[C@H](CCC(=O)O)[C@H]1CC[C@H]2[C@@H]3[C@H](O)C[C@H]4CC(=O)CC[C@]4(C)[C@H]3C[C@H](O)[C@]12C [3kACA, 7α,12α-dihydroxy-5α-cholan-3-one-24-oic acid]
- cross-reaction with the antiserum ([1]; relative to 3kPZS standard): 100%
- cross-reaction with the antiserum [1, 5]: equally well
- extraction into the diethyl ether phase [2]: could be extracted into the diethyl ether phase

Compound: C[C@H](CCCOS(=O)(=O)O)[C@H]1CC[C@H]2[C@@H]3[C@H](O)C[C@H]4C[C@H](O)CC[C@]4(C)[C@H]3C[C@H](O)[C@]12C [PZS, 3α,7α,12α,24-tetrahydroxy-5α-cholan-24-sulfate]
- cross-reaction with the antiserum ([1]; relative to 3kPZS standard): 1.6%

Compound: C[C@H](CCCO)[C@H]1CC[C@H]2[C@@H]3[C@H](O)C[C@H]4CC(=O)CC[C@]4(C)[C@H]3C[C@H](O)[C@]12C [3kPZ, 7α,12α,24-trihydroxy-5α-cholan-3-one]
- cross-reaction with the antiserum ([1]; relative to 3kPZS standard): 100%
- cross-reaction with the antiserum [1, 5]: equally well

Compound: CC(CCCOS(=O)(=O)O)C1CCC2C3C(O)CC4CC(=O)CCC4(C)C3CC(O)C12C (stereo not drawn) [3kPZS, 7α,12α,24-trihydroxy-5α-cholan-3-one-24-sulfate]
- level at which it attracts ovulated females (ovulated females; in words): sub-nanomolar
- searching behavior in the scented side (ovulated females; [6]): increased searching behavior
- time spent in the scented side (ovulated females; [6]): spent a longer time
- No. animals that spent more time on side that was: Scented (ovulated females; [7]): 8
- No. animals that spent more time on side that was: Unscented (ovulated females; [7]): 0
- No. animals that spent more time searching on side that was: Scented (ovulated females; [8]): 6
- No. animals that spent more time searching on side that was: Unscented (ovulated females; [8]): 0
- olfactory stimulation by EOG ([3]; adult females): highly stimulatory
- detection threshold ([3]; worked out from release rate and EOG detection of male washings after dilution of 10^6 times): about 10^−12 molar
- extraction into the diethyl ether phase [2]: not
- stability in storage [4]: appeared to have broken down to 3kPZ
